Converted amounts (≈) assume the structure as drawn.
Assays:
L1210 = test: Cytotoxicity against mouse L1210 cells; format: functional, cell-based
KB = test: Cytotoxicity against human KB cells; format: functional, cell-based
HeLa = test: Cytotoxicity against human HeLa cells; format: functional, cell-based
[1] = target: T1, Adenosine receptor A1 (Homo sapiens) (UniProt P30542); test: Displacement of [3H]DPCPX from adenosine A1 receptor in human HeLa cells at 100 uM by whole cell binding assay; format: cell-based
T1 sequence (whole entry): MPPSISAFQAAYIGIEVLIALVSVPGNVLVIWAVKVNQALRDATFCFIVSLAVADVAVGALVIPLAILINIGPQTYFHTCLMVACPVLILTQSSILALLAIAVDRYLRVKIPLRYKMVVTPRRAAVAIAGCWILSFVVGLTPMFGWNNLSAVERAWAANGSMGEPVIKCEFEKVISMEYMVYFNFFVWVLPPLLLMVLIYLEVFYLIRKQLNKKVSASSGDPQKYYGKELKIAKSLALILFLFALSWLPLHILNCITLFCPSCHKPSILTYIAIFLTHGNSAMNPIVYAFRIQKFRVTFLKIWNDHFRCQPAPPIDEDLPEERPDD

Jurkat = test: Antiproliferative activity against human Jurkat cells by MTT assay; format: functional, cell-based
U-937 [2] = test: Antiproliferative activity against human U937 cells by MTT assay; format: functional, cell-based
U-937 [3] = test: Induction of apoptosis in human U937 cells after 24 to 48 hrs by annexin V/propidium iodide staining based flow cytometry; format: functional
P388 = test: Cytotoxicity against mouse P388 cells; format: functional, cell-based

Which results are given for `COC1=C(Br)[C@H](O)[C@@]2(C=C1Br)CC(C(=O)NCCc1c(Br)cc(OCCCN(C)C)cc1Br)=NO2` [PUREALIDIN Q]?
IC50 (L1210): 0.95 µg/mL (≈ 1.27 µM); IC50 (KB): 1.2 µg/mL (≈ 1.61 µM)

How did the EC50 (HeLa) turn out when `COC1=C(Br)[C@H](O)[C@@]2(C=C1Br)CC(C(=O)NCCCCNC(=O)C1=NO[C@]3(C=C(Br)C(OC)=C(Br)[C@@H]3O)C1)=NO2` [AEROTHIONIN] was run?
The EC50 was 42 µM.

Which results are given for `COC1=C(Br)[C@H](O)[C@@]2(C=C1Br)CC(C(=O)NCCCOc1c(Br)cc(CCN(C)C)cc1Br)=NO2`?
IC50 (L1210): 2.8 µg/mL (≈ 3.76 µM); IC50 (KB): 7.6 µg/mL (≈ 10.2 µM)

For `COC1=C(Br)[C@H](O)[C@@]2(C=C1Br)CC(C(=O)NCCCOc1c(Br)cc(CCNS(=O)(=O)O)cc1Br)=NO2`, which EC50 (HeLa) is on record?
The EC50 was 60 µM.

And the inhibition [1]?
Its inhibition is 61%.

Which EC50 (HeLa) does the source give for `COC1=C(Br)[C@H](O)[C@@]2(C=C1Br)CC(C(=O)NCCCOc1c(Br)cc(CCNC(=O)C3=NO[C@]4(C=C(Br)C(OC)=C(Br)[C@@H]4O)C3)cc1Br)=NO2` here?
The EC50 was 2.6 µM.

How did the IC50 (Jurkat) turn out when `COC1=C(Br)[C@H](O)[C@@]2(C=C1Br)CC(C(=O)NCCCOc1c(Br)cc(C(O)CNC(=O)C3=NO[C@]4(C=C(Br)C(OC)=C(Br)[C@@H]4O)C3)cc1Br)=NO2` (stereo not given in full) was run?
The IC50 was 8.1 µM.

What about the IC50 (U-937 [2]) of the same molecule?
The IC50 was 8.1 µM.

What about the Activity (U-937 [3]) of the same molecule?
Its Activity is 35%.

Which results are given for `COC1=C(Br)[C@H](O)[C@@]2(C=C1Br)CC(C(=O)NCC(O)COc1c(Br)cc(C(O)CNC(=O)C3=NO[C@]4(C=C(Br)C(OC)=C(Br)[C@@H]4O)C3)cc1Br)=NO2` (stereo not given in full)?
IC50 (Jurkat): 7.39 µM; IC50 (U-937 [2]): 7.39 µM; Activity (U-937 [3]): 35%

Which IC50 (P388) does the source give for `COC1=C(Br)C[C@]2(OC=C1Br)ON=C(C(=O)NCCCOc1c(Br)cc(CCNC=C3C(=O)C=CC3=O)cc1Br)[C@@H]2O` (relative stereo) here?
Its IC50 is 2.1 µg/mL (≈ 2.5 µM).

Source: ChEMBL document CHEMBL3232741, “Isoxazoline containing natural products as anticancer agents: a review” (Eur J Med Chem, 2014)
